From article PMC7822592, “The half-life of the bone-derived hormone osteocalcin is regulated through O-glycosylation in mice, but not in humans” (eLife, 2020)

Test system: primary osteoblasts
Experiment: Percentage of carboxylated OCN (Gla-OCN) over total OCN by ELISA in osteoblast secretion medium
Format: cell-based, mouse
Description: Primary osteoblasts were transfected using jetPRIME Reagent (Polypus transfection). After an overnight incubation, media were changed to secretion media (FBS-free αMEM plus 2 mM L-glutamine, PS). After 24 hr of secretion, media were collected, and cells were lysed in protein lysis buffer (20 mM Tris-HC pH 7.4, 150 mM NaCl, 1 mM EDTA, 1 mM EGTA, 1% Triton, 1 mM PMSF, and 1 × protease inhibitor cocktail) and analyzed by western blotting. In some experiments, osteoblasts were treated with the γ-carboxylation inhibitor warfarin (50 μM; Santa Cruz Biotechnology), the N-acetylgalactosaminyltransferase inhibitor GalNAc-bn (2 mM, Sigma) or the proprotein convertase inhibitor Dec-RVKR-CMK (50 μM, Tocris), combined with 22 μM vitamin K1 (Sigma).

Row | SMILES | Gla OCN (% of total) (osteoblasts transfected with OCN-V5, inhibitor 2 mM, secretion medium, Figure 2C, replicate 1) | Gla OCN (% of total) (osteoblasts transfected with OCN-V5, inhibitor 2 mM, secretion medium, Figure 2C, replicate 2) | Gla OCN (% of total) (osteoblasts transfected with OCN-V5, inhibitor 50 μM, Figure 2D/2E, replicate 1) | Gla OCN (% of total) (osteoblasts transfected with OCN-V5, inhibitor 50 μM, Figure 2D/2E, replicate 2) | Gla OCN (% of total) (osteoblasts transfected with OCN-V5, inhibitor 50 μM, Figure 2D/2E, replicate 3) | Gla OCN (% of total) (osteoblasts transfected with OCN-V5, inhibitor 50 μM, secretion medium, Figure 2C, replicate 1) | Gla OCN (% of total) (osteoblasts transfected with OCN-V5, inhibitor 50 μM, secretion medium, Figure 2C, replicate 2) | Gla OCN (% of total) (osteoblasts transfected with OCNS8A-V5, inhibitor 50 μM, Figure 2D/2E, replicate 1) | Gla OCN (% of total) (osteoblasts transfected with OCNS8A-V5, inhibitor 50 μM, Figure 2D/2E, replicate 2) | Gla OCN (% of total) (osteoblasts transfected with OCNS8A-V5, inhibitor 50 μM, Figure 2D/2E, replicate 3)
1 | CC(=O)N[C@H]1[C@@H](OCc2ccccc2)O[C@H](CO)[C@H](O)[C@@H]1O [GalNAc-bn, benzyl-N-acetyl-α-galactosaminide] | 43.4 % of total | 43.4 % of total |  |  |  |  |  |  |  | 
2 | CC(=O)CC(c1ccccc1)c1c(O)c2ccccc2oc1=O (stereo not shown) [Warfarin] |  |  | 29.8 % of total | 27.1 % of total | 26.1 % of total | 14.3 % of total | 19.5 % of total | 26.8 % of total | 20.4 % of total | 29.1 % of total
